Laboratory results taken from US11059855B2, “Antimicrobial peptides and methods of making and using same” (priority 2017, dated 2021).

Key:
[1] = previous work; cited from earlier work
[2] = tested on: ciprofloxacin-resistant E. coli
Procedure: “N.D.” means “not determined”.
Ceftazidime is active on the bacteria's cell wall and interferes with bacterial cell wall formation.^38,39 Ciprofloxacin is able to inhibit DNA gyrase, type II topoisomerase, and topoisomerase IV to separate bacterial DNA and inhibits cell division.^40 Streptomycin and gentamicin are antibiotics that can interrupt and inhibit protein synthesis.^41,42 E. coli strain ATCC 25922 cultures were grown in the presence of each of these antibiotics at elevated concentration for 10 generations.

[3] = tested on: Escherichia coli biofilm; assay: Activity against biofilm, E. coli; type: cell-based; settings: 67-150 μM peptide, 3 hr treatment
Procedure: (§1) Selected analogues were tested with each (13A). Escherichia coli biofilm, (13B). Staphylococcus aureus biofilm, and (13C) Pseudomonas aeruginosa biofilm.
(§2) However, most of the LDKA analogues fail to treat S. aureus and P. aeruginosa biofilms. Only K7H and 7F3 are capable to reduce S. aureus biofilms by ˜50% with 100 μM peptide concentration, and none of the analogues work against P. aeruginosa biofilms (FIGS. 13a-13c).

[4] = tested on: Staphylococcus aureus biofilm; assay: Activity against biofilm, S. aureus; type: cell-based; settings: 100 μM peptide concentration, 3 hr treatment
Procedure: as §1, §2

[5] = ANTS/DPX leakage assay, POPG; type: biochemical; settings: P:L = 1:1000, pH 7 phosphate buffer
Procedure: (§3) 5 mM ANTS and 12.5 mM DPX were entrapped in 0.1 μm diameter extruded vesicles with lipids. Gel filtration chromatography of Sephadex G-100 (GE Healthcare Life Sciences Inc.) was used to remove external free ANTS/DPX from LUVs with entrapped contents. […] Leakage was measured after 3 hr incubation. 10% Triton was used as the positive control to measure the maximum leakage of the vesicle. Fluorescence emission spectra were recorded using excitation wavelength (Ex: 350 nm) and emission wavelength (Em: 510 nm) for ANTS/DPX using Synergy H1 Hybrid Multi-Mode Reader.
(§4) This detects and quantifies the release of a small fluorescent dye (ANTS/DPX; MW=˜400 Da) encapsulated in LUVs after addition of library peptides. Neutral POPC LUVs serve as a simple model for mammalian membranes, while charged POPG LUVs mimic bacterial membranes enriched in anionic lipids.

[6] = provided by the distributor, GenScript; cited from earlier work
[7] = Circular dichroism secondary structure (Dichroweb), peptide only; type: physicochemical; settings: 20 °C
Procedure: (§5) Dichroweb software analyzes the secondary structure of LDKA peptides from circular dichroism spectroscope. The table presents the percentage of each helix and strand structure at different temperature. The data are analyzed using CONTIN-LL method and Reference Set 4 (Optimised for 190-240 nm).
(§6) Peptide solutions (peptide concentration is 50 μM) were titrated with POPC and POPG LUVs (50, 100, 250, 500, 1000 μM) and the corresponding changes CD spectra collected. Analysis of these spectra using CD tools and Dichroweb provides an ensemble average of the changes in secondary structure in the presence of POPC and POPG LUVs (dichroweb.cryst.bbk.ac.uk), which gives a direct measure of the binding free energies for each peptide.

[8] = Pore-size characterization by 3-kDa dextran release; type: biochemical; settings: ‡Large pore for PG only
Text: Eight LDKA peptides with different lipid selectivity and pore sizes were selected from the high-throughput screen and sequenced. […] The most common mutation is L to A, occurred 13 times and in 7 out of the 8 peptides, followed by A to L, which occurred 6 times in 5 peptides, L to D which occurred 3 times in 3 peptides, and L to P that occurred once. Lysine (K) is not favorable to be shown at the position 6, 8, 10, 12, and 13, which is the non-polar face of the helical structure. […] More specifically, the analogs only induce leakage from anionic POPG vesicles have 4-5 leucines, which is less than the analogs that can porate both POPC and POPG vesicles and have 6-7 leucines in their sequences.

[9] = Circular dichroism secondary structure (Dichroweb), with POPG; type: physicochemical
Procedure: as §5, §6

[10] = tested on: P. aeruginosa; assay: Bacterial minimum inhibitory concentration (MIC), P. aeruginosa; type: cell-based, Pseudomonas aeruginosa; settings: 75 μM maximum tested; NDA = not determinable
Procedure: (§7) Escherichia colt strain ATCC 25922, Staphylococcus aureus strain ATCC 25923, and Pseudomonas aeruginosa strain ATCC PAO1 were used in this study. Overnight cultures were subcultured to log phase (OD600=0.3-0.6) after which cell counts were determined by measuring the OD600 (OD600 1.0=1.5×10^8 CFU/mL for S. aureus, 5×10^8 CFU/mL for E. colt, and 2.04×10^8 CFU/mL for P. aeruginosa). Bacteria in minimal media mere added to serially diluted peptides and incubated for 3 hr, followed by the addition of full growth media. After overnight incubation, the optical density of the wells was recorded on a plate reader to determine whether they were sterilized (OD<0.08) or were at stationary phase growth (OD600>0.5). Intermediate values, which were rare, were considered positive for growth. Average minimum sterilizing concentrations were calculated from the lowest peptide concentration that sterilized the bacteria in each serial dilution. The samples were done in sextuplet.

[11] = tested on: human red blood cells; assay: Hemolysis assay; type: cell-based
Procedure: (§8) Fresh human red blood cells were obtained from Interstate Blood Bank, Inc., and thoroughly washed in PBS until the supernatant was clear. hRBC concentration was determined using a standard hemocytometer. In hemolysis assays serial dilutions of peptide were prepared, followed by the addition of 2×10^8 hRBC/mL. After incubation for 1 hr at 37° C. the cells were centrifuged and the released hemoglobin was measured by optical absorbance of the heme group (410 nm). Negative control was buffer only (0% lysis), and the positive control was 20 μM melittin and distilled water (100% lysis). The samples were done in triplicate.

[12] = Hemolysis assay; type: cell-based, human; settings: human
Procedure: as §8

[13] = Circular dichroism secondary structure (Dichroweb), with POPC; type: physicochemical
Procedure: as §5, §6

[14] = 3-kDa dextran macromolecule release assay, POPC; type: biochemical; settings: P:L = 1:1000, pH 7 phosphate buffer
Procedure: Several different size dextrans were prepared and labelled with both TAMRA and biotin. Conjugated dextran was entrapped in POPC LUVs as described above. External dextran was removed by incubation with immobilized streptavidin. Streptavidin labelled with an Alexa-488 fluorophore was added during the leakage experiment with the peptide as previous described.^5 The sample was then incubated for 3 hr before measuring Alexa-488 fluorescence. A control without added peptide served as the 0% leakage signal and addition of 0.05% vol. Triton X-100 was used to determine 100% leakage.

[15] = ANTS/DPX leakage assay, POPC; type: biochemical; settings: P:L = 1:1000, pH 7 phosphate buffer
Procedure: as §3, §4

[16] = Membrane selectivity from high-throughput dye leakage screen; type: biochemical; settings: PC = POPC, PG = POPG
Text: as §4

[17] = 3-kDa dextran macromolecule release assay, POPG; type: biochemical; settings: P:L = 1:1000, pH 7 phosphate buffer
[18] = tested on: S. aureus; assay: Bacterial minimum inhibitory concentration (MIC), S. aureus; type: cell-based, Staphylococcus aureus; settings: 75 μM maximum tested; NDA = not determinable
Procedure: as §7

[19] = tested on: methicillin-resistant Staphylococcus aureus (MRSA); type: cell-based; settings: 75 μM maximum tested; NDA = not determinable

## GL5RL5G: polyleucine-based peptide of the acetyl-GLnRLnG-amide family, n=5 (SEQ ID NO: 28) (Ac-GLLLLLRLLLLLG-NH2)
[1]
  ΔGS→TM: 2.1 ± 0.2 kcal/mol

## GL6RL6G: polyleucine-based peptide of the acetyl-GLnRLnG-amide family, n=6 (SEQ ID NO: 29) (Ac-GLLLLLLRLLLLLLG-NH2)
[1]
  ΔGS→TM: 0.5 ± 0.3 kcal/mol

## H-GLADLAKLLLKLLGW-NH2 [Peptide 7F3]
[2]
  MIC, ciprofloxacin-resistant E. coli: completely fail
[3]
  Elimination of E. coli biofilm: ~50%
[4]
  Reduction of S. aureus biofilms: ~50%
[5]
  ANTS/DPX release, POPG: 106%
[6]
  Solubility, DMSO: 15000 µg/mL
  Solubility, DPBS pH 7.1: <0.1 mg/mL
  Solubility, Ultrapure Water: 5000 µg/mL
[7]
  Peptide-only, Helix: 75%
  Peptide-only, Strand: 4%
[8]
  Pore size: Small
[9]; 20 °C
  Peptide-POPG, Helix: 52%
  Peptide-POPG, Strand: 12%
[9]; 45 °C
  Peptide-POPG, Helix: 58%
  Peptide-POPG, Strand: 7%
[9]; 70 °C
  Peptide-POPG, Helix: 66%
  Peptide-POPG, Strand: 2%
[9]; 95 °C
  Peptide-POPG, Helix: 76%
  Peptide-POPG, Strand: 2%
[10]
  Minimum Inhibitory Concentration, P. aeruginosa: NDA
[11]
  Hemolytic activity (in words): significantly haemolytic
[12]
  HC50 at 1 hr: 1100 nM
[13]; 20 °C
  Peptide-POPC, Helix: 82%
  Peptide-POPC, Strand: 1%
[13]; 45 °C
  Peptide-POPC, Helix: 77%
  Peptide-POPC, Strand: 2%
[13]; 70 °C
  Peptide-POPC, Helix: 76%
  Peptide-POPC, Strand: 3%
[13]; 95 °C
  Peptide-POPC, Helix: 70%
  Peptide-POPC, Strand: 4%
[14]
  3-kDa Dextran release, POPC: -3%
[15]
  ANTS/DPX release, POPC: 88%
[16]
  Membrane selectivity (POPC vs POPG vesicles): Non-selective
[17]
  3-kDa Dextran release, POPG: 46%

## H-GLLDLLHLLLKAAGW-NH2 [Peptide K7H]
[4]
  Reduction of S. aureus biofilms: ~50%
[6]
  Solubility, DMSO: 15000 µg/mL
  Solubility, DPBS pH 7.1: <0.1 mg/mL
  Solubility, Ultrapure Water: 1000 µg/mL
[18]
  Minimum Inhibitory Concentration, S. aureus: 3 µM
[7]
  Peptide-only, Helix: 62%
  Peptide-only, Strand: 4%
[9]; 20 °C
  Peptide-POPG, Helix: 53%
  Peptide-POPG, Strand: 11%
[9]; 45 °C
  Peptide-POPG, Helix: 59%
  Peptide-POPG, Strand: 8%
[9]; 70 °C
  Peptide-POPG, Helix: 77%
  Peptide-POPG, Strand: 2%
[9]; 95 °C
  Peptide-POPG, Helix: 77%
  Peptide-POPG, Strand: 2%
[10]
  Minimum Inhibitory Concentration, P. aeruginosa: does not inhibit and NDA
[12]
  CC50 at 1 hr: 2300 nM
[13]; 20 °C
  Peptide-POPC, Helix: 65%
  Peptide-POPC, Strand: 5%
[13]; 45 °C
  Peptide-POPC, Helix: 80%
  Peptide-POPC, Strand: 1%
[13]; 70 °C
  Peptide-POPC, Helix: 80%
  Peptide-POPC, Strand: 2%
[13]; 95 °C
  Peptide-POPC, Helix: 72%
  Peptide-POPC, Strand: 3%

## H-GLLDLLKLLLKLAGW-NH2 [Peptide 28H6]
[5]
  ANTS/DPX release, POPG: 105%
[6]
  Solubility, DMSO: 15000 µg/mL
  Solubility, DPBS pH 7.1: <0.1 mg/mL
  Solubility, Ultrapure Water: 500 µg/mL
[18]
  Minimum Inhibitory Concentration, S. aureus: NDA
[7]
  Peptide-only, Helix: 63%
  Peptide-only, Strand: 4%
[8]
  Pore size: Large
[9]; 20 °C
  Peptide-POPG, Helix: 18%
  Peptide-POPG, Strand: 32%
[9]; 45 °C
  Peptide-POPG, Helix: 23%
  Peptide-POPG, Strand: 29%
[9]; 70 °C
  Peptide-POPG, Helix: 27%
  Peptide-POPG, Strand: 25%
[9]; 95 °C
  Peptide-POPG, Helix: 55%
  Peptide-POPG, Strand: 7%
[10]
  Minimum Inhibitory Concentration, P. aeruginosa: NDA
[19]
  Minimum Inhibitory Concentration, MRSA: NDA
[11]
  Hemolytic activity (in words): significantly haemolytic
[12]
  HC50 at 1 hr: 1200 nM
[13]; 20 °C
  Peptide-POPC, Helix: 58%
  Peptide-POPC, Strand: 10%
[13]; 45 °C
  Peptide-POPC, Helix: 64%
  Peptide-POPC, Strand: 6%
[13]; 70 °C
  Peptide-POPC, Helix: 68%
  Peptide-POPC, Strand: 6%
[13]; 95 °C
  Peptide-POPC, Helix: 65%
  Peptide-POPC, Strand: 3%
[14]
  3-kDa Dextran release, POPC: 38%
[15]
  ANTS/DPX release, POPC: 99%
[16]
  Membrane selectivity (POPC vs POPG vesicles): Non-selective
[17]
  3-kDa Dextran release, POPG: 67%
